Source: US20150031674A1, “SERINE/THREONINE KINASE INHIBITORS” (GENENTECH, INC., priority 2013, published 2015)

target: human recombinant PAK1-KD protein (Homo sapiens, UniProt Q13153); assay: PAK1-KD (Kinase Domain) IC50 Zlyte Assay (FRET peptide substrate phosphorylation); conditions: Z'-LYTE, Biological Example 1
Sequence (Q13153 270-521 limits assumed): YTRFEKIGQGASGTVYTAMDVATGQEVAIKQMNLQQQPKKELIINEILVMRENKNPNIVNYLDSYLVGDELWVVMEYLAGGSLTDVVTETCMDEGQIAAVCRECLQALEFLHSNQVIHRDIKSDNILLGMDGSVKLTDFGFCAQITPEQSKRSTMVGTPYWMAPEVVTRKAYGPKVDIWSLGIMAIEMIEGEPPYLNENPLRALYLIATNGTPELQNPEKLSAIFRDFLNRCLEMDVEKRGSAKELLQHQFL
Text: PAK1-KD (Kinase Domain) IC50 Zlyte Assay Protocol
Activity of human recombinant PAK1-KD protein may be assessed in vitro by assay of the phosphorylation of a FRET peptide substrate. Catalytically active human recombinant PAK1-KD protein is obtained by purification from Tini cells infected with a human PAK1-KD recombinant baculovirus expression vector.
The activity/inhibition of PAK1-KD was estimated by measuring the phosphorylation of a FRET peptide substrate (Ser/Thr19) labeled with Coumarin and Fluorescein using Z′-LYTE™ assay (Invitrogen). The peptide substrate is a consensus sequence ([sequence]) based on various PAK substrates reported in the scientific literature. […] Incubations were carried out at 22° C. in black polypropylene 384-well plates (Corning Costar).

Ki | SMILES
4.5 nM | CCNc1ncc2cc(-c3ccc(-c4cccc(C)n4)cc3C)c(=O)n(C3COC4(CCNC4)C3)c2n1 (stereo not shown) [Example I-122, 2-(Ethylamino)-6-[2-methyl-4-(6-methyl-2-pyridyl)phenyl]-8-(1-oxa-7-azaspiro[4.4]nonan-3-yl)pyrido[2,3-d]pyrimidin-7-one]
7.08 nM | CCNc1ncc2cc(-c3ccc(-c4cccc(C)n4)cc3Cl)c(=O)n(CC[C@H](O)CO)c2n1 [Example I-123, 6-[2-Chloro-4-(6-methyl-2-pyridyl)phenyl]-8-[(3S)-3,4-dihydroxybutyl]-2-(ethylamino)pyrido[2,3-d]pyrimidin-7-one]
11.8 nM | CCNc1ncc2cc(-c3ccc(-c4cncc(C)n4)cc3Cl)c(=O)n(CC3C4CN(C)CC43)c2n1 (stereo not shown) [Example I-128, 6-[2-chloro-4-(6-methylpyrazin-2-yl)phenyl]-2-(ethylamino)-8-[(3-methyl-3-azabicyclo[3.1.0]hexan-6-yl)methyl]pyrido[2,3-d]pyrimidin-7-one]
27.5 nM | CCc1cc(-c2cncc(C)n2)ccc1-c1cc2cnc(NC)nc2n(CCOCCN)c1=O [Example I-129, 8-[2-(2-aminoethoxy)ethyl]-6-[2-ethyl-4-(6-methylpyrazin-2-yl)phenyl]-2-(methylamino)pyrido[2,3-d]pyrimidin-7-one]
52.2 nM | CCNc1ncc2cc(-c3ccc(-c4cncc(C)n4)cc3Cl)c(=O)n(CCN3CCNC(=O)C3)c2n1 [Example I-130, 6-[2-chloro-4-(6-methylpyrazin-2-yl)phenyl]-2-(ethylamino)-8-[2-(3-oxopiperazin-1-yl)ethyl]pyrido[2,3-d]pyrimidin-7-one]
32.5 nM | CCc1cc(-c2cncc(C)n2)ccc1-c1cc2cnc(NC)nc2n(CCCN)c1=O [Example I-131, 8-(3-aminopropyl)-6-[2-ethyl-4-(6-methylpyrazin-2-yl)phenyl]-2-(methylamino)pyrido[2,3-d]pyrimidin-7-one]
14.5 nM | CNc1ncc2cc(-c3ccc(-c4cccc(C)n4)cc3C)c(=O)n(CCCO)c2n1 [Example I-132, 8-(3-hydroxypropyl)-2-(methylamino)-6-[2-methyl-4-(6-methyl-2-pyridyl)phenyl]pyrido[2,3-d]pyrimidin-7-one]
0.9 nM | Cc1cccc(-c2ccc(-c3cc4cnc(NC5COC5)nc4n(CC[C@H]4OC[C@@H](N)CO4)c3=O)c(Cl)c2)n1 [Example I-133]
3.45 nM | CNc1ncc2cc(-c3ccc(-c4cccc(C)n4)cc3Cl)c(=O)n(CC[C@H]3OC[C@@H](N)CO3)c2n1 [Example I-134, 8-[2-(5-amino-1,3-dioxan-2-yl)ethyl]-6-[2-chloro-4-(6-methyl-2-pyridyl)phenyl]-2-(methylamino)pyrido[2,3-d]pyrimidin-7-one]
0.654 nM | Cc1cccc(-c2ccc(-c3cc4cnc(NC5COC5)nc4n(CC[C@H]4OC[C@@H](N)CO4)c3=O)c(Cl)c2)n1 [Example I-135, 8-[2-(5-amino-1,3-dioxan-2-yl)ethyl]-6-[2-chloro-4-(6-methyl-2-pyridyl)phenyl]-2-(oxetan-3-ylamino)pyrido[2,3-d]pyrimidin-7-one]
0.92 nM | CNc1ncc2cc(-c3ccc(-c4cccc(C)n4)cc3Cl)c(=O)n(CC[C@H]3OC[C@H](N)CO3)c2n1 [Example I-137, 8-[2-(5-amino-1,3-dioxan-2-yl)ethyl]-6-[2-chloro-4-(6-methyl-2-pyridyl)phenyl]-2-(methylamino)pyrido[2,3-d]pyrimidin-7-one]
9.6 nM | CNc1ncc2cc(-c3ccc(-c4cncc(C)n4)cc3Cl)c(=O)n(CCCCCN)c2n1 [Example I-138, 8-(5-aminopentyl)-6-[2-chloro-4-(6-methylpyrazin-2-yl)phenyl]-2-(methylamino)pyrido[2,3-d]pyrimidin-7-one]
56 nM | CNc1ncc2cc(-c3ccc(-c4cncc(C)n4)cc3Cl)c(=O)n(CCNCCO)c2n1 [Example I-139, 6-[2-chloro-4-(6-methylpyrazin-2-yl)phenyl]-8-[2-(2-hydroxyethylamino)ethyl]-2-(methylamino)pyrido[2,3-d]pyrimidin-7-one]
